Measurements from PubChem BioAssay AID1999 (Broad Institute, 2009).
Records with an inconclusive call do not appear. The source made the active and inactive calls. How the calls were made is not given here.

Test system: H4 cells, PrP 5'UTR luciferase reporter, luminescence
Assay: activators of PrP 5'UTR-driven reporter translation, dose response, luminescence (AID 1999)

**Q.** `C#CCOCCOCCOCCNc1nc(N2CCN(C(=O)CCCCCCCCCCNC(=O)[C@H](CCCCN)n3cc(CCCC(=O)O)nn3)CC2)nc(N2CCN(C(=O)CCCCCCCCCCNC(=O)[C@H](CCCN=C(N)N)n3cc(C[C@@H](C)CC)nn3)CC2)n1` was tested. Which EC50 did it give?
**A.** > 12 µM (inactive)
